Like-named read-outs stand apart in the source and are kept apart here.
How the values were obtained:
[1] = test system: genotype 4a (ED43) stable HCV replicon in Huh-7-derived cells; test: Stable subgenomic HCV replicon EC50, genotype 4a (Renilla luciferase); assay type: cell-based, hepatitis C virus; conditions: 72 h, read-out: EC50 4A RLUC
Method in brief: (§1)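 Compounds, three-fold diluted, were applied to Huh-7-derived cells harbouring luciferase replicons (genotype 1a H77, 1b Con1, 2a JFH-1, 4a ED43, with strain-specific adaptive mutations). Seventy-two hours later, intracellular replication was gauged by Renilla luciferase activity and EC50 derived by regression.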

[2] = test system: genotype 1b (Con1) wild type transient HCV replicon in Huh-7-derived cells; test: Transient-transfected HCV replicon EC50, genotype 1b wild type; assay type: cell-based, hepatitis C virus; conditions: transient-transfected replicon genotype 1b wild type, 72 h, read-out: EC50 1B WT
[3] = test system: genotype 1a (H77) stable HCV replicon in Huh-7-derived cells; test: Stable subgenomic HCV replicon EC50, genotype 1a (Renilla luciferase); assay type: cell-based, hepatitis C virus; conditions: stable replicon genotype 1a, 72 h, read-out: EC50 1A RLUC
Method in brief: as §1

[4] = test system: genotype 3a (S52) stable HCV replicon in Huh-7-derived cells; test: Stable subgenomic HCV replicon EC50, genotype 3a (Renilla luciferase); assay type: cell-based, hepatitis C virus; conditions: 72 h, read-out: EC50 3A RLUC
[5] = test system: genotype 1a NS3/4a protease inhibitor resistant variant R155K transient HCV replicon in Huh-7-derived cells; test: Transient-transfected HCV replicon EC50, genotype 1a R155K; assay type: cell-based, hepatitis C virus; conditions: 72 h
[6] = test system: genotype 2a (JFH-1) stable HCV replicon in Huh-7-derived cells; test: Stable subgenomic HCV replicon EC50, genotype 2a (Renilla luciferase); assay type: cell-based, hepatitis C virus; conditions: stable replicon genotype 2a, 72 h, read-out: EC50 2A RLUC
Method in brief: as §1

[7] = test system: genotype 1b NS3/4a protease inhibitor resistant variant D168A transient HCV replicon in Huh-7-derived cells; test: Transient-transfected HCV replicon EC50, genotype 1b D168A; assay type: cell-based, hepatitis C virus; conditions: 72 h
[8] = test system: genotype 1b (Con1) stable HCV replicon in Huh-7-derived cells; test: Stable subgenomic HCV replicon EC50, genotype 1b (Renilla luciferase); assay type: cell-based, hepatitis C virus; conditions: stable replicon genotype 1b, 72 h, read-out: EC50 1B RLUC
Method in brief: as §1

[9] = biological target: HCV NS3 protease domain genotype 3a (Hepatitis C virus genotype 3a, UniProt Q81258); test: Ki determination, NS3 protease genotype 3a (fluorogenic depsipeptide substrate); assay type: biochemical; conditions: 200 pM enzyme, NS4A peptide
HCV NS3 protease domain genotype 3a, sequence (Q81258 whole entry, looked up, the tested form may be a part): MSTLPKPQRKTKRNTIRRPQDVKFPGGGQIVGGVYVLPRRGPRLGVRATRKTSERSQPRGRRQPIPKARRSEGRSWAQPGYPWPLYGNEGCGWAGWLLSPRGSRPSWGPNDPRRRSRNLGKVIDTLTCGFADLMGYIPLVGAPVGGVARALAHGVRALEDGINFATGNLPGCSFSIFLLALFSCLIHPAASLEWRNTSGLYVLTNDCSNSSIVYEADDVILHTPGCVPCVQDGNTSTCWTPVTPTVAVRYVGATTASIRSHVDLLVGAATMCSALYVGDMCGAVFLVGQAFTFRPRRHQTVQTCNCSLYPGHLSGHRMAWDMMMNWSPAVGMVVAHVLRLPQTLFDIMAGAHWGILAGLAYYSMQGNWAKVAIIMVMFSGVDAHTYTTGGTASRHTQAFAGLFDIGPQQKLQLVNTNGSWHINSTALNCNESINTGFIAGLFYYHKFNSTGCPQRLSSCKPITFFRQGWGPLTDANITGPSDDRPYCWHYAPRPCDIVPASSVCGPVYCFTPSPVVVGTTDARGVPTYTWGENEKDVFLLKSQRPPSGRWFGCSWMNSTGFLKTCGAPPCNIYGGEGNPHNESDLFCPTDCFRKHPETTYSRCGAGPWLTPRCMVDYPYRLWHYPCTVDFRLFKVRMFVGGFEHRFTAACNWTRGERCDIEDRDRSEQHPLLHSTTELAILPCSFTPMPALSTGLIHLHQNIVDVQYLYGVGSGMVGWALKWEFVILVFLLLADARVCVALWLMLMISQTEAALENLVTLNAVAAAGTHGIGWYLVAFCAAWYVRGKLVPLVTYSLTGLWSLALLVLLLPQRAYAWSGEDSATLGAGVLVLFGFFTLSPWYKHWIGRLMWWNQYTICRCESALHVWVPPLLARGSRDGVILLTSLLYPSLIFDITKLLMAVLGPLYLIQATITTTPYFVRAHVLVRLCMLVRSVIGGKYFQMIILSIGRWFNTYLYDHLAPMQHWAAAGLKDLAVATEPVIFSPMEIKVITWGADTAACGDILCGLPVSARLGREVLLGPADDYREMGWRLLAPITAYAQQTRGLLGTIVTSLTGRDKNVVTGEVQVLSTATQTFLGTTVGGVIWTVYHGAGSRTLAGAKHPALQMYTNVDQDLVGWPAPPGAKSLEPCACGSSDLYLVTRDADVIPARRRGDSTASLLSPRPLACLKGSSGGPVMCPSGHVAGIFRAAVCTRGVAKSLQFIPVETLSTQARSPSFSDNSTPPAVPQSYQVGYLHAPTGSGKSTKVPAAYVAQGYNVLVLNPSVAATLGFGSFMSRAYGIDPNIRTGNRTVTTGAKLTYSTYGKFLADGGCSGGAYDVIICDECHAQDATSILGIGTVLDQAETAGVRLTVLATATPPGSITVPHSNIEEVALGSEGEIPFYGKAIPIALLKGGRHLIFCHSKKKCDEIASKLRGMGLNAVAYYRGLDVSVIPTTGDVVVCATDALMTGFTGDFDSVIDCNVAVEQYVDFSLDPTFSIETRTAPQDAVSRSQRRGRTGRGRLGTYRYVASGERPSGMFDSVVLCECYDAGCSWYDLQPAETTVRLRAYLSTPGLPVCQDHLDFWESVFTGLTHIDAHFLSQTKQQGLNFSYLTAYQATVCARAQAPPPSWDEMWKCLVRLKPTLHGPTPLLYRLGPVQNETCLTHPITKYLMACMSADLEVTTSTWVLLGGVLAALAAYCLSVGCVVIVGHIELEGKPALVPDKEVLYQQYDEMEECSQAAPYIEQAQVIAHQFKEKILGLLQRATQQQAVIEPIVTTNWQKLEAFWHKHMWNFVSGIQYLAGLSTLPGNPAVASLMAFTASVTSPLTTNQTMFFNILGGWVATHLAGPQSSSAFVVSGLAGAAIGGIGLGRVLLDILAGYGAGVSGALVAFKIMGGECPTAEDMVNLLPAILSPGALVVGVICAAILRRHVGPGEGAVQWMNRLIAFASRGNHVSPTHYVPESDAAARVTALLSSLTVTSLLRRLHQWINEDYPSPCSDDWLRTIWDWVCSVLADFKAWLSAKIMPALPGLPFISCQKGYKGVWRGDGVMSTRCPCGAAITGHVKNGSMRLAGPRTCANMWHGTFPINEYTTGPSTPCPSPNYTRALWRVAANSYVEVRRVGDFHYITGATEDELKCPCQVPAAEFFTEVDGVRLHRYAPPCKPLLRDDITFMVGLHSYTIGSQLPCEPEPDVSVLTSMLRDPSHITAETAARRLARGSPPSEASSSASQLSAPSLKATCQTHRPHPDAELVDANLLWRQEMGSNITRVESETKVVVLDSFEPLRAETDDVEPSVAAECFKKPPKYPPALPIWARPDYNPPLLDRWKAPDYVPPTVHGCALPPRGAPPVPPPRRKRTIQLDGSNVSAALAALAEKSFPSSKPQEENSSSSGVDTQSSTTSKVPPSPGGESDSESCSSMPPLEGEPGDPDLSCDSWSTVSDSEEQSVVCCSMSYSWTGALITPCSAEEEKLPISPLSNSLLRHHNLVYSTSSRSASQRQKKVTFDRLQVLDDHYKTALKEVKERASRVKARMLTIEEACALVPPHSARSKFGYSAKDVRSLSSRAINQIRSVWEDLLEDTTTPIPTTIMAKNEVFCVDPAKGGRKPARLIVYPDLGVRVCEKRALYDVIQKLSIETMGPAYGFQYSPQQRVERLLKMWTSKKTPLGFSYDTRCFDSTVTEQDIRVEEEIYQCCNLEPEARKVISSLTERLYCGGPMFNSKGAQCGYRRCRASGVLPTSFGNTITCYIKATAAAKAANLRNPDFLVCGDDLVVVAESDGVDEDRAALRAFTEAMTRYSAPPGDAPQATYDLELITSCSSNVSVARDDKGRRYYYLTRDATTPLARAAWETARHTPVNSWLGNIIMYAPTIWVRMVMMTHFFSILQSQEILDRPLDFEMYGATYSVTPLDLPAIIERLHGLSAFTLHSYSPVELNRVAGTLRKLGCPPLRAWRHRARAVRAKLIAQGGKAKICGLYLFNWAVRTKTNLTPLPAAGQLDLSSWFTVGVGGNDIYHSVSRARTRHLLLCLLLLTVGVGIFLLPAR
Source text: Purified NS3 protease domain (amino acids 1-181) of the genotype 1b and 3a virus were generated as above. The internally quenched fluorogenic depsipeptide substrate Ac-DED(Edans)-EEAbuΨ[COO]ASK(Dabcyl)-NH2 and a synthetic peptide containing the hydrophobic core residues of the NS4A protein cofactor ([…]; NS4A peptide) were obtained from Anaspec, Inc. (San Jose, Calif.). Other chemicals and biochemicals were of reagent grade or better and were purchased from standard suppliers.
Reactions were run at room temperature in buffer consisting of 50 mM HEPES, 40% glycerol, 0.05% Triton X-100, 10 mM DTT, and 10% DMSO. The final assay solutions contained 50 pM NS3 genotype 1 b protease or 200 pM genotype 3a protease, 20 μM NS4A peptide, and 4 μM substrate (genotype 1b) or 2 μM substrate (genotype 3a). Inhibitor concentrations varied from 100 nM to 5 pM in 3-fold dilutions, and no-inhibitor controls were included.
Compound dilutions were made in DMSO at 20× final concentration. Reaction mixtures were prepared in 96-well assay plates. A solution of enzyme and NS4A peptide in assay buffer (25 μL volume with both reagents at 4× final concentration) was mixed with 45 μL assay buffer and 5 μL of either inhibitor or DMSO, and pre-incubated at room temperature for 1 hour. The reaction was started by addition of 25 μL substrate solution at 4× final concentration. Plates were mixed vigorously for 5-10 seconds and reactions were allowed to proceed for 90 minutes, fluorescence was measured every 30 s between 90 and 120 minutes reaction time using a Tecan InfiniTe M1000 or PerkinElmer Envision multimode plate reader with an excitation wavelength of 340 nm and an emission wavelength of 490 nm.
Rates were calculated from the progress curves at steady state, in the time frame of 90-120 minutes after addition of substrate. To determine the Ki, rates were plotted as a function of inhibitor concentration, and the data were fit with equation 1 (Morrison, J. F., Biochimica et Biophysica Acta 1969, 185, 269-286) to calculate Ki^app using GraphPad Prism 5. Active fraction of enzyme was determined by active site titration with known potent inhibitors. Ki was calculated from Ki^app/(1+[[S]/Km]).

[10] = test system: genotype 1a (H77) wild type transient HCV replicon in Huh-7-derived cells; test: Transient-transfected HCV replicon EC50, genotype 1a wild type; assay type: cell-based, hepatitis C virus; conditions: transient-transfected replicon genotype 1a wild type, 72 h, read-out: EC50 1A WT
[11] = stable replicon genotype 4a, Renilla luciferase
[12] = stable replicon genotype 3a, Renilla luciferase
[13] = transient-transfected replicon genotype 1a R155K resistant variant, read-out: EC50 1A R155K
[14] = transient-transfected replicon genotype 1b D168A resistant variant, read-out: EC50 1B D168A

Structure (SMILES)	EC50 [1, 11] [nM]	EC50 [2] [nM]	EC50 [3] [nM]	EC50 [4, 12] [nM]	EC50 [5, 13] [nM]	EC50 [6] [nM]	EC50 [7, 14] [nM]	EC50 [8] [nM]	Ki [9] [nM]	EC50 [10] [nM]	EC50 ([1]; Hepatitis C virus) [nM]	EC50 ([3]; Hepatitis C virus) [nM]	EC50 ([4]; Hepatitis C virus) [nM]	EC50 ([6]; Hepatitis C virus) [nM]	EC50 ([8]; Hepatitis C virus) [nM]	other results
CC[C@@H]1[C@@H]2CN(C(=O)[C@H](C(C)(C)C)NC(=O)O[C@@]3(C(F)(F)F)CCC[C@H]3CCCCCc3nc4ccc(OC)cc4nc3O2)[C@@H]1C(=O)N[C@]1(C(=O)NS(=O)(=O)C2CC2)C[C@H]1C(F)F [Example 12, (7S,10S,11S,12R)-7-tert-butyl-N-[(1R,2R)-1-[(cyclopropylsulfonyl)carbamoyl]-2-(difluoromethyl)cyclopropyl]-11-ethyl-16-methoxy-5,8-dioxo-3aS-(trifluoromethyl)-1,2,3,3a,5,6,7,8,11,12,20,21,22,23,24,24a-hexadecahydro-10H-9,12-methanocyclopenta[18,19][1,10,3,6]dioxadiazacyclononadecino[11,12-b]quinoxaline-10-carboxamide]	21	5.7	34	2010	283	25	640	18	1.2	14	–	–	–	–	–	–
COc1ccc2nc3c(nc2c1)O[C@H]1CN(C(=O)[C@H](C(C)(C)C)NC(=O)O[C@@H]2C[C@H]2CCCCC3)[C@H](C(=O)N[C@]2(C(=O)NS(=O)(=O)C3(C)CC3)C[C@H]2C(F)F)[C@@H]1Cc1ccccc1 [Example 32]	–	–	–	–	–	–	–	–	0.87	–	30	59	2310	35	30	EC50 ([2]; Hepatitis C virus, GETYPE1B): 14 nM; EC50 ([5]; Hepatitis C virus, GETYPE1A, read-out: EC50 1A R155K, transient-transfected replicon genotype 1a R155K resistant variant, 72 h): 547 nM; EC50 ([7]; Hepatitis C virus, GETYPE1B, read-out: EC50 1B D168A, transient-transfected replicon genotype 1b D168A resistant variant, 72 h): 653 nM; EC50 ([10]; Hepatitis C virus, GETYPE1A): 44 nM
COc1ccc2nc3c(nc2c1)O[C@H]1CN(C(=O)[C@H](C(C)(C)C)NC(=O)O[C@@H]2C[C@H]2CCCCC3)[C@H](C(=O)N[C@]2(C(=O)NS(=O)(=O)C3(C)CC3)C[C@H]2C(F)F)[C@@H]1C [Example 18, (1aR,5S,8S,9S,10R,22aR)-5-tert-butyl-N-[(1R,2R)-2-(difluoromethyl)-1-{[(1-methylcyclopropyl)sulfonyl]carbamoyl}cyclopropyl]-14-methoxy-9-methyl-3,6-dioxo-1,1a,3,4,5,6,9,10,18,19,20,21,22,22a-tetradecahydro-8H-7,10-methanocyclopropa[18,19][1,10 3,6]dioxadiazacyclononadecino[11,12-b]quinoxaline-8-carboxamide]	–	–	–	–	–	–	–	–	0.1	–	2.8	3.9	70	5	2.6	–
CC[C@@H]1[C@@H]2CN(C(=O)[C@H](C(C)(C)C)NC(=O)O[C@]3(C(F)(F)F)CCC[C@H]3CCCCCc3nc4ccc(OC)cc4nc3O2)[C@@H]1C(=O)N[C@]1(C(=O)NS(=O)(=O)C2CC2)C[C@H]1C(F)F [Example 11, (7S,10S,11 S,12R)-7-tert-butyl-N-[(1R,2R)-1-[(cyclopropylsulfonyl)carbamoyl]-2-(difluoromethyl)cyclopropyl]-1-ethyl-16-methoxy-5,8-dioxo-3aR-(trifluoromethyl)-1,2,3,3a,5,6,7,8,11,12,20,21,22,23,24,24a-hexadecahydro-1 OH-9,12-methanocyclopenta[18,19][1,10,3,6]dioxadiazacyclononadecino[11,12-b]quinoxaline-10-carboxamide]	19	9.4	28	1160	159	34	605	17	0.88	20	–	–	–	–	–	–
CC[C@@]12C[C@H]1CCCCCc1nc3ccc(OC)cc3nc1O[C@H]1CN(C(=O)[C@H](C(C)(C)C)NC(=O)O2)[C@H](C(=O)N[C@]2(C(=O)NS(=O)(=O)C3(C)CC3)C[C@H]2C(F)F)[C@@H]1C [Example 43, (1aR,5S,8S,9S,10R,22aR)-5-tert-butyl-N-[(1R,2R)-2-(difluoromethyl)-1-{[(1-methylcyclopropyl)sulfonyl]carbamoyl}cyclopropyl]-1a-ethyl-14-methoxy-9-methyl-3,6-dioxo-1,1a,3,4,5,6,9,10,18,19,20,21,22,22a-tetradecahydro-8H-7,10-methanocyclopropa[18,19][1,10,3,6]dioxadiazacyclononadecino[11,12-b]quinoxaline-8-carboxamide]	–	–	–	–	–	–	–	–	0.16	–	3.6	4.9	92	5.2	3.8	EC50 ([2]; Hepatitis C virus): 2.4 nM; EC50 ([5]; Hepatitis C virus, read-out: EC50 1A R155K, transient-transfected replicon genotype 1a R155K resistant variant, 72 h): 8.7 nM; EC50 ([7]; Hepatitis C virus, read-out: EC50 1B D168A, transient-transfected replicon genotype 1b D168A resistant variant, 72 h): 41 nM; EC50 ([10]; Hepatitis C virus): 3.8 nM
CC[C@@H]1[C@@H]2CN(C(=O)[C@H](C3CCCCC3)NC(=O)O[C@@H]3C[C@H]3CCCCCc3nc4ccc(OC)cc4nc3O2)[C@@H]1C(=O)N[C@]1(C(=O)NS(=O)(=O)C2(C)CC2)C[C@H]1C(F)F [Example 16, (1aR,5S,8S,9S,10R,22aR)-5-cyclohexyl-N-[(1R,2R)-2-(difluoromethyl)-1-{[(1-methylcyclopropyl)sulfonyl]carbamoyl}cyclopropyl]-9-ethyl-14-methoxy-3,6-dioxo-1,1a,3,4,5,6,9,10,18,19,20,21,22,22a-tetradecahydro-8H-7,10-methanocyclopropa[18,19][1,10,3,6]dioxadiazacyclononadecino[11,12-b]quinoxaline-8-carboxamide]	–	–	–	–	–	–	–	–	0.21	–	8.1	12	201	6.2	7.4	–
